The values below come from patent publication US10246426B2, “Triazole compounds as T-type calcium channel blockers” (IDORSIA PHARMACEUTICALS LTD, priority 2014, dated 2019).

This assay addresses Cav3.2 (Homo sapiens, UniProt O95180). The experiment in a line: Calcium flux FLIPR assay, HEK293 cells recombinantly expressing Cav3.2. The class given is cell-based. The conditions noted are these: Cav3.2-channel, Ca2+ entry stimulated by 10 mM CaCl2. How it is done: In Vitro Methods—Measurement of Calcium Channel Flux by Means of FLIPR Assays.
HEK293 cells recombinantly expressing either voltage-dependent T-type calcium channel subunit […] (Cav3.2) or voltage-dependent L-type calcium channel subunit alpha-1C (Cav1.2) are assayed for calcium flux using the calcium indicator dye Fluo-4-AM (Molecular Devices) and FLIPR technology (Fluorometric Imaging Plate Reader, Molecular Devices) (Xie X, Van Deusen A L, Vitko I, Babu D A, Davies L A, Huynh N, Cheng H, Yang N, Barrett P Q, Perez-Reyes E. Validation of high throughput screening assays against three subtypes of Ca(v)3 T-type channels using molecular and pharmacologic approaches. Assay and Drug Development Technologies 2007, 5(2), 191-203). The HEK293 cells recombinantly expressing Cav3.2 are maintained in DMEM growth medium (Life Technologies) supplemented with 10% Fetal Bovine Serum (FBS), 100 U/ml penicilin (Life Technologies), 100 μg/ml streptomycin (Life Technologies) and 1 mg/ml G418 (Life Technologies). HEK293 cells recombinantly expressing Cav1.2 are maintained in DMEM growth medium (Life technologies) supplemented with 10% FBS, 0.1 mg/ml G418 (Life Technologies), 0.1 mg/ml hygromycin (Life Technologies) and 40 ug/ml zeocin (Life Technologies).
Cells are washed once with PBS, then dissociated in 0.25% trypsin/EDTA (Life Technologies) and seeded into poly-D-lysine coated 384-well black, clear bottom plates (BD Biosciences) at a density of 30,000 cells/well. The seeded plates are incubated overnight at 37° C.
Immediately prior to performing the assay, medium is removed and cells are treated for 1 hour at 37° C. with loading buffer containing HBSS 1× (137 mM NaCl; 5.4 mM KCl; 0.25 mM Na2HPO4; 1.3 mM CaCl2; 0.4 mM MgSO04; 0.5 mM MgCl2; 0.4 mM KH2PO4, pH 7.4), 0.375 g/L NaHCO3, 20 mM Hepes, supplemented with 3 μM Fluo-4-AM and 0.15% Pluronic (Life Technologies). The cells are then washed three times with assay buffer (HBSS 1×; 0.375 g/L NaHCO3; 20 mM Hepes; 1% FBS; pH 7.4) and allowed to rest in 50 μl of wash buffer for 30 minutes.
Stock solutions of test compounds are prepared to a concentration of 10 mM in DMSO. For the Cav3.2 assay, serial dilutions of the compounds are prepared in TEAC buffer (100 mM tetraethylammonium chloride; 20 mM Hepes; 2.5 mM CaCl2; 5 mM KCl; 1 mM MgCl2; 1% FBS; pH 7.2), for the Cav1.2 assay serial dilutions are prepared in assay buffer. […] The compounds are incubated with the cells for 3 minutes and Ca2+ entry is stimulated by adding either CaCl2 to a final concentration of 10 mM (Cav3.2 assay) or by adding KCl to a final concentration of 20 mM (Cav1.2 assay). The kinetics of fluorescence increase are recorded for every well and the area under the fluorescence trace for every compound concentration is used to generate inhibition curves using non-linear regression sigmoidal concentration-response curve analysis with in-house software. IC50 values are calculated and represent the compound concentration required to inhibit 50% of the signal that is obtained in the presence of vehicle instead of test compound.
(In general: Calcium assays in cells follow changes in intracellular calcium, usually with a dye or a luminescent sensor.)

Chain of Cav3.2 (O95180 whole entry, looked up): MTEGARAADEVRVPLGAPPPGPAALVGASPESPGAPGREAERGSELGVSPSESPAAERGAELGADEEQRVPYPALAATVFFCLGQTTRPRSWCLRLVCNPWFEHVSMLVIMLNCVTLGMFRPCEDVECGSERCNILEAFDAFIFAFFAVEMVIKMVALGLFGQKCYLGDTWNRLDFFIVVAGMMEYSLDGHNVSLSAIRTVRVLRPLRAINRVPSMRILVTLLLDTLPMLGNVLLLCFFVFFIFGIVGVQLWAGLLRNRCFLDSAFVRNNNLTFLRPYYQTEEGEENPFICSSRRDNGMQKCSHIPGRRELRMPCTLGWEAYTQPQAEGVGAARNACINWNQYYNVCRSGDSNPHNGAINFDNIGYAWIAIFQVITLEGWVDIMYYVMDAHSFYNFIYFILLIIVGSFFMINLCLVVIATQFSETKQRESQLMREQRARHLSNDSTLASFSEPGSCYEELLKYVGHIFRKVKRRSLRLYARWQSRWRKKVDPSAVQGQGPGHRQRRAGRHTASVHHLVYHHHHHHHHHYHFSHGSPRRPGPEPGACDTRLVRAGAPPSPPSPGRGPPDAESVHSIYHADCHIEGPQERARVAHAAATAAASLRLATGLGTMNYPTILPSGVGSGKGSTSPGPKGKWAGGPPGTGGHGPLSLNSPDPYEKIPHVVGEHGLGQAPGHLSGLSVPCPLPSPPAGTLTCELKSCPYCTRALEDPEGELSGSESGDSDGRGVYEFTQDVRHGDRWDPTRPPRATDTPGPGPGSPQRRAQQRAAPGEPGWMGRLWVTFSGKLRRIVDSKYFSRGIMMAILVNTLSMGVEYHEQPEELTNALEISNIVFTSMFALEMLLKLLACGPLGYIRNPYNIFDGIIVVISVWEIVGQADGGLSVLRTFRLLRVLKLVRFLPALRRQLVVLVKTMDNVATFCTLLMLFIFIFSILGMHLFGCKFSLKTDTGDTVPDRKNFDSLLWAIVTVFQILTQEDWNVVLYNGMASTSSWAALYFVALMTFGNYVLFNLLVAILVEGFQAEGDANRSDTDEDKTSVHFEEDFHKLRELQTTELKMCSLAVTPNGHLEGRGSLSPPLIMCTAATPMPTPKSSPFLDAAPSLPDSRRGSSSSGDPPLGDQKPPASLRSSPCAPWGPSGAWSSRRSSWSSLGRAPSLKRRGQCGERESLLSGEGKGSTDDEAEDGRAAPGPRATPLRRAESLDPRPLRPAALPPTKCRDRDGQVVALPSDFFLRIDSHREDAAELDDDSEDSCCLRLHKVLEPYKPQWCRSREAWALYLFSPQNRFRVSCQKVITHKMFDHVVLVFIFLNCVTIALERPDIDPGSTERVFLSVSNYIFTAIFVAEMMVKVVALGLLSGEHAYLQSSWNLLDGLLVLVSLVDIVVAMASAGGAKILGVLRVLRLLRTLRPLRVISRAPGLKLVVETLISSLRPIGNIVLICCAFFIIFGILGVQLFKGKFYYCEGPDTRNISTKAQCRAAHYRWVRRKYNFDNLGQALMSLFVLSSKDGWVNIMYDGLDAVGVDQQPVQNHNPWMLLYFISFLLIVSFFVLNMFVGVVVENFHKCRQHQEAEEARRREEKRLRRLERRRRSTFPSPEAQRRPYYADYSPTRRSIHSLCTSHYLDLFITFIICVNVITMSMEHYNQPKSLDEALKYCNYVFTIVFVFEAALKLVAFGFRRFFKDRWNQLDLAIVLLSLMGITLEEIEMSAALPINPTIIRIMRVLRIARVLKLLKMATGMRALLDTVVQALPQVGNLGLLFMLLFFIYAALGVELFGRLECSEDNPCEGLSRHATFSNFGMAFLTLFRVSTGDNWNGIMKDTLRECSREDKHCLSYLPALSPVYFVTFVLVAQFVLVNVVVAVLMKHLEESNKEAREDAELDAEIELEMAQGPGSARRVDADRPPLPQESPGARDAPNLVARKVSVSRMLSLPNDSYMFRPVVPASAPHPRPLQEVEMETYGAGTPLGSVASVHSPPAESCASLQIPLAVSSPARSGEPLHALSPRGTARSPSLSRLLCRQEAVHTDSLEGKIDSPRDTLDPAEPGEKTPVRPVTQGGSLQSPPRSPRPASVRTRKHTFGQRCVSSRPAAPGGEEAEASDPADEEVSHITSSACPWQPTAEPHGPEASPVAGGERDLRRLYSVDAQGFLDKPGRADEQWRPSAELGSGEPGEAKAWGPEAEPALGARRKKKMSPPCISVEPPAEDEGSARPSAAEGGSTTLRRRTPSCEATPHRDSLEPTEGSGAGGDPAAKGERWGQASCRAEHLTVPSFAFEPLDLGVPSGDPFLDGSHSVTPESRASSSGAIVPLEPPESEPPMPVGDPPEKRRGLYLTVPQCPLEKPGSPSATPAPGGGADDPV

In general, IC50 refers to the concentration needed to halve the response being measured. As to `Cn1ncc2cc(CC(=O)Nc3cnn(Cc4ccc(F)c(F)c4)n3)cnc21` [Example 38, N-[2-(3,4-Difluoro-benzyl)-2H-[1,2,3]triazol-4-yl]-2-(1-methyl-1H-pyrazolo[3,4-b]pyridin-5-yl)-acetamide], the IC50 came out at 580 nM.

On to `O=C(Cc1ccc2[nH]nc(C(F)(F)F)c2c1)Nc1cnn(Cc2ccc(F)c(F)c2)n1` [Example 39, N-[2-(3,4-Difluoro-benzyl)-2H-[1,2,3]triazol-4-yl]-2-(3-trifluoromethyl-1H-indazol-5-yl)-acetamide], for which the IC50 came to 280 nM.

In the case of `CCOc1ccc(Cn2ncc(NC(=O)Cc3ccc4c(ccn4C)c3)n2)cc1` [Example 40, N-[2-(4-Ethoxy-benzyl)-2H-[1,2,3]triazol-4-yl]-2-(1-methyl-1H-indol-5-yl)-acetamide], the IC50 amounted to 35 nM.

With `CCOc1ccc(Cn2ncc(NC(=O)Cc3ccc(N4CCC(F)(F)C4)nc3)n2)cc1` [Example 41, 2-[6-(3,3-Difluoro-pyrrolidin-1-yl)-pyridin-3-yl]-N-[2-(4-ethoxy-benzyl)-2H-[1,2,3]triazol-4-yl]-acetamide], the concentration for half-maximal inhibition (IC50) came to 18 nM.

In the case of `CCOc1ccc(Cn2ncc(NC(=O)Cc3ccc(C4(C)COC4)cc3)n2)cc1` [Example 42, N-[2-(4-Ethoxy-benzyl)-2H-[1,2,3]triazol-4-yl]-2-[4-(3-methyl-oxetan-3-yl)-phenyl]-acetamide], the 50% inhibitory concentration (IC50) was 31 nM.

Consider `CCOc1ccc(Cn2ncc(NC(=O)Cc3ccc(C(C)(C)C)cc3)n2)cc1` [Example 43, 2-(4-tert-Butyl-phenyl)-N-[2-(4-ethoxy-benzyl)-2H-[1,2,3]triazol-4-yl]-acetamide], for which the IC50 turned out to be 45 nM.

On to `CCOc1ccc(Cn2ncc(NC(=O)Cc3ccc(C(C)C)cc3)n2)cc1` [Example 44, N-[2-(4-Ethoxy-benzyl)-2H-[1,2,3]triazol-4-yl]-2-(4-isopropyl-phenyl)-acetamide], for which the IC50 was 40 nM.

Consider `CCOc1ccc(Cn2ncc(NC(=O)Cc3ccc(N4CCCC4)nc3)n2)cc1` [Example 45, N-[2-(4-Ethoxy-benzyl)-2H-[1,2,3]triazol-4-yl]-2-(6-pyrrolidin-1-yl-pyridin-3-yl)-acetamide], for which the half-inhibitory concentration (IC50) turned out to be 32 nM.

With `CCOc1ccc(Cn2ncc(NC(=O)Cc3ccc4c(cnn4C)c3)n2)cc1` [Example 46, N-[2-(4-Ethoxy-benzyl)-2H-[1,2,3]triazol-4-yl]-2-(1-methyl-1H-indazol-5-yl)-acetamide], the IC50 was 63 nM.

For `CCN(CC)c1ccc(CC(=O)Nc2cnn(Cc3ccc(OC)c(OC)c3)n2)cn1` [Example 47, 2-(6-Diethylamino-pyridin-3-yl)-N-[2-(3,4-dimethoxy-benzyl)-2H-[1,2,3]triazol-4-yl]-acetamide], the IC50 turned out to be 560 nM.

For the molecule `COc1ccc(Cn2ncc(NC(=O)Cc3ccc(N4CCC(F)(F)C4)nc3)n2)cc1OC` [Example 48, 2-[6-(3,3-Difluoro-pyrrolidin-1-yl)-pyridin-3-yl]-N-[2-(3,4-dimethoxy-benzyl)-2H-[1,2,3]triazol-4-yl]-acetamide], the IC50 amounted to 530 nM.

On to `COc1ccc(Cn2ncc(NC(=O)Cc3ccc(C(C)(C)C)cc3)n2)cc1OC` [Example 49, 2-(4-tert-Butyl-phenyl)-N-[2-(3,4-dimethoxy-benzyl)-2H-[1,2,3]triazol-4-yl]-acetamide], for which the IC50 worked out at 170 nM.

In the case of `COc1ccc(Cn2ncc(NC(=O)Cc3ccc(C(C)C)cc3)n2)cc1OC` [Example 50, N-[2-(3,4-Dimethoxy-benzyl)-2H-[1,2,3]triazol-4-yl]-2-(4-isopropyl-phenyl)-acetamide], the IC50 was determined as 160 nM.

Regarding `COc1ccc(Cn2ncc(NC(=O)Cc3ccc(N4CCCC4)nc3)n2)cc1OC` [Example 51, N-[2-(3,4-Dimethoxy-benzyl)-2H-[1,2,3]triazol-4-yl]-2-(6-pyrrolidin-1-yl-pyridin-3-yl)-acetamide], the IC50 turned out to be 600 nM.

As for `Cn1ccc2cc(CC(=O)Nc3cnn(Cc4ccc(F)cc4)n3)ccc21` [Example 52, N-[2-(4-Fluoro-benzyl)-2H-[1,2,3]triazol-4-yl]-2-(1-methyl-1H-indol-5-yl)-acetamide], the IC50 came out at 12 nM.

As to `CC1(c2ccc(CC(=O)Nc3cnn(Cc4ccc(F)cc4)n3)cc2)COC1` [Example 53, N-[2-(4-Fluoro-benzyl)-2H-[1,2,3]triazol-4-yl]-2-[4-(3-methyl-oxetan-3-yl)-phenyl]-acetamide], the IC50 is 35 nM.

With `CC(C)(C)c1ccc(CC(=O)Nc2cnn(Cc3ccc(F)cc3)n2)cc1` [Example 54, 2-(4-tert-Butyl-phenyl)-N-[2-(4-fluoro-benzyl)-2H-[1,2,3]triazol-4-yl]-acetamide], the IC50 is 26 nM.

For the molecule `O=C(Cc1ccc(N2CCCC2)nc1)Nc1cnn(Cc2ccc(F)cc2)n1` [Example 55, N-[2-(4-Fluoro-benzyl)-2H-[1,2,3]triazol-4-yl]-2-(6-pyrrolidin-1-yl-pyridin-3-yl)-acetamide], the IC50 worked out at 50 nM.

In the case of `Cn1ncc2cc(CC(=O)Nc3cnn(Cc4ccc(F)cc4)n3)ccc21` [Example 56, N-[2-(4-Fluoro-benzyl)-2H-[1,2,3]triazol-4-yl]-2-(1-methyl-1H-indazol-5-yl)-acetamide], the IC50 was determined as 38 nM.

Consider `COc1ccc(Cn2ncc(NC(=O)Cc3ccc4c(ccn4C)c3)n2)cc1` [Example 57, N-[2-(4-Methoxy-benzyl)-2H-[1,2,3]triazol-4-yl]-2-(1-methyl-1H-indol-5-yl)-acetamide], for which the IC50 was 38 nM.

Regarding `CCN(CC)c1ccc(CC(=O)Nc2cnn(Cc3ccc(OC)cc3)n2)cn1` [Example 58, 2-(6-Diethylamino-pyridin-3-yl)-N-[2-(4-methoxy-benzyl)-2H-[1,2,3]triazol-4-yl]-acetamide], the IC50 stood at 160 nM.

In the case of `COc1ccc(Cn2ncc(NC(=O)Cc3ccc(N4CCC(F)(F)C4)nc3)n2)cc1` [Example 59], the IC50 stood at 60 nM.

For the molecule `COc1ccc(Cn2ncc(NC(=O)Cc3ccc(C4(C)COC4)cc3)n2)cc1` [Example 60, N-[2-(4-Methoxy-benzyl)-2H-[1,2,3]triazol-4-yl]-2-[4-(3-methyl-oxetan-3-yl)-phenyl]-acetamide], the IC50 is 120 nM.

As for `COc1ccc(Cn2ncc(NC(=O)Cc3ccc(C(C)(C)C)cc3)n2)cc1` [Example 61, 2-(4-tert-Butyl-phenyl)-N-[2-(4-methoxy-benzyl)-2H-[1,2,3]triazol-4-yl]-acetamide], the IC50 came to 44 nM.

As for `COc1ccc(Cn2ncc(NC(=O)Cc3ccc(N4CCCC4)nc3)n2)cc1` [Example 62, N-[2-(4-Methoxy-benzyl)-2H-[1,2,3]triazol-4-yl]-2-(6-pyrrolidin-1-yl-pyridin-3-yl)-acetamide], the IC50 is 120 nM.

For `COc1ccc(Cn2ncc(NC(=O)Cc3ccc4c(cnn4C)c3)n2)cc1` [Example 63, N-[2-(4-Methoxy-benzyl)-2H-[1,2,3]triazol-4-yl]-2-(1-methyl-1H-indazol-5-yl)-acetamide], the 50% inhibitory concentration (IC50) was found to be 160 nM.

Turning to `Cc1ccc(Cn2ncc(NC(=O)Cc3ccc4c(ccn4C)c3)n2)cc1` [Example 64, N-[2-(4-Methyl-benzyl)-2H-[1,2,3]triazol-4-yl]-2-(1-methyl-1H-indol-5-yl)-acetamide], the IC50 was found to be 30 nM.

For `Cc1ccc(Cn2ncc(NC(=O)Cc3ccc(N4CCC(F)(F)C4)nc3)n2)cc1` [Example 65, 2-[6-(3,3-Difluoro-pyrrolidin-1-yl)-pyridin-3-yl]-N-[2-(4-methyl-benzyl)-2H-[1,2,3]triazol-4-yl]-acetamide], the IC50 stood at 23 nM.

For the molecule `Cc1ccc(Cn2ncc(NC(=O)Cc3ccc(C(C)(C)C)cc3)n2)cc1` [Example 66, 2-(4-tert-Butyl-phenyl)-N-[2-(4-methyl-benzyl)-2H-[1,2,3]triazol-4-yl]-acetamide], the IC50 was determined as 70 nM.

As to `Cc1ccc(Cn2ncc(NC(=O)Cc3ccc(C4(C)COC4)cc3)n2)cc1` [Example 67, N-[2-(4-Methyl-benzyl)-2H-[1,2,3]triazol-4-yl]-2-[4-(3-methyl-oxetan-3-yl)-phenyl]-acetamide], the IC50 amounted to 66 nM.
